Target: T1, PfcFRS (Plasmodium falciparum, UniProt Q8I246)
T1 sequence (Q8I246 1-575): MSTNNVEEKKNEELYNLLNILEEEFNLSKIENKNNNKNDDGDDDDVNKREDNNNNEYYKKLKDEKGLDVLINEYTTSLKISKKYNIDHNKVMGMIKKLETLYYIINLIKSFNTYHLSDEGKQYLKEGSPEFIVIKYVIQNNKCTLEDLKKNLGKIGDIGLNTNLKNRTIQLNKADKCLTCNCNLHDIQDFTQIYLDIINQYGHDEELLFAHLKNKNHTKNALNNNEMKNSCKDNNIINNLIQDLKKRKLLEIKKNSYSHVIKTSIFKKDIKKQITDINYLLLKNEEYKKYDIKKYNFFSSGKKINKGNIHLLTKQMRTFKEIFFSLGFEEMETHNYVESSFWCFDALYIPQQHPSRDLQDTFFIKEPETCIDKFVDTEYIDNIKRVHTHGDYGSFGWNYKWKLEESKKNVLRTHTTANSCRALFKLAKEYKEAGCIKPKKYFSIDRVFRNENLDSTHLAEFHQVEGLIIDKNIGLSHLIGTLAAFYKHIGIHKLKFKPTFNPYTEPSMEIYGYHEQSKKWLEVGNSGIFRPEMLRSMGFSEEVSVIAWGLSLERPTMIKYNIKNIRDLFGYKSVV
T1 sequence (Q8IIW2 1-623 partner): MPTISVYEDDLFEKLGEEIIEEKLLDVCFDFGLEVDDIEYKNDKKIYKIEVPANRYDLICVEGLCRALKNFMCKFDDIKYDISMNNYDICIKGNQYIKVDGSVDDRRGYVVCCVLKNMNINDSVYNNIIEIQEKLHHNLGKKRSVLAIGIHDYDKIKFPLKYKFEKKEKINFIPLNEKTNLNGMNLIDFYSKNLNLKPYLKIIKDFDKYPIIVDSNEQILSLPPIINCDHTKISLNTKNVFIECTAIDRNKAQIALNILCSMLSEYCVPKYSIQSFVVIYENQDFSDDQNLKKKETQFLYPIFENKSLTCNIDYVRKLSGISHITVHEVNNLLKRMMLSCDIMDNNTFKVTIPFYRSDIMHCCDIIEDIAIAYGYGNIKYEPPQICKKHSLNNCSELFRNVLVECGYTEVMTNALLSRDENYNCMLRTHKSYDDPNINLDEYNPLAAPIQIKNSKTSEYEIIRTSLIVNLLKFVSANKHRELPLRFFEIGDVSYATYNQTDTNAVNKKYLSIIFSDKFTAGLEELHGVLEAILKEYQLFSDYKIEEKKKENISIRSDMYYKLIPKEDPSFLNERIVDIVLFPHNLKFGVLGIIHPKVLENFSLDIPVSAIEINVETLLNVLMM
Test: Malachite green aminoacylation enzyme inhibition assay
Format: biochemical
Method: These were done using malachite green assay as per earlier published reports[1],[6]. Briefly, the reaction was performed for 100 µM ATP, 50 µM L-phenylalanine and 100 nM recombinant PheRS enzymes (Pf, Pv, Hs, Pf mutant (L550V)) in a buffer containing 30 mM HEPES (pH 7.5), 150 mM, NaCl, 30 mM KCl, 50 mM, MgCl2, 1 mM DTT, and 2 U/ml E. coli inorganic pyrophosphatase (NEB) at 37 °C. Enzymatic reactions (50 μl total volume) were performed in clear, flat-bottomed, 96-well plates (Costar 96-well standard microplates). The reaction mixture was incubated for 2 h at 37 °C. The reaction was stopped by adding 12.5 μl of malachite green solution to the reaction mixture and levels of inorganic phosphate (Pi) were detected after incubation of 5 min at room temperature. Absorbance was the measured at 620 nm using a Spectramax M2 (Molecular Devices). Reactions without FRS enzyme were performed as background controls, values of which were subtracted from the reactions with enzyme. BRD1389 was added to our aminoacylation assay reaction buffer in varying concentrations ranging from 0.1 nM to 10,000 nM. The IC50 value for the data is shown for three replicates as the mean ± SD.

## COC[C@@H]1[C@H](c2ccc(C#Cc3ccccc3)cc2)[C@@H]2CN(C(=O)Nc3ccc(OC4CC4)cc3)C[C@@H](O)[C@@H](O)CN12 [BRD1389]
2 h, read-out: % Enzyme Activity
  remaining activity at 1 pM: 100%
2 h, PfcFRS, BRD1389 0.0001 uM
  remaining activity at 0.0001 µM: 98.4%
2 h, PfcFRS, BRD1389 0.001 uM
  remaining activity at 0.001 µM: 85.2%
2 h, PfcFRS, BRD1389 0.01 uM
  remaining activity at 0.01 µM: 46.7%
2 h, PfcFRS, BRD1389 0.1 uM
  remaining activity at 0.1 µM: 9.72%
2 h, PfcFRS, BRD1389 1 uM
  remaining activity at 1 µM: 4.61%
2 h, PfcFRS, BRD1389 10 uM
  remaining activity at 10 µM: 1.17%
2 h, PfcFRS, BRD1389 100 uM
  remaining activity at 100 µM: 0%
Pf cFRS aminoacylation activity
  IC50: 0.012 ± 0.0008 µM

From article PMC7803973, “Structural basis of malaria parasite phenylalanine tRNA-synthetase inhibition by bicyclic azetidines” (Nature Communications, 2021)
